The values that follow come from patent US20030228263A1, “Propagermanium for treating myeloma bone disease and other bone disorders” (SurroMed, Inc., priority 2002, published 2003).

Assay [1] deals with monocytes. To be noted: cited from earlier work.
Assay [2] deals with macrophages. To be noted: mouse, in vivo; cited from earlier work.
Assay [3] has as its system human bone marrow cells stimulated with MIP-1α. As to the kind of experiment: Formation of human osteoclasts (23c6-positive multinucleated cells) in long-term marrow cultures. Particulars: for increase in the number of osteoclasts formed over untreated marrow: 200 pg/ml MIP-1α or 10^−8 M 1,25-(OH)2D3 alone, 23c6-positive cells, about three weeks, FIG. 3. It counts as cell-based. Here is the method: Human long-term marrow cultures were performed as described in D. E. Hughes et al., “Estrogen promotes apoptosis of murine osteoclasts mediated by TGF-β,” Nature Medicine 2: 1132-1136, 1996, which is incorporated herein by reference. Briefly, human bone marrow nonadherent mononuclear cells from normal volunteers were cultured at 10^6 cells/ml in α-minimum essential medium and 20% horse serum with or without 10^−8 M 1,25-(OH)2D3 (vitamin D), 200 pg/ml MIP-1α, 20 ng/ml anti-human MIP-1α antibody, and varying concentrations of propagermanium. Five wells of each of ten different culture conditions were prepared in a 96-well plate. Each well contained 10^5 cells and the desired combination of reagents. Half of the culture medium was changed weekly. After approximately three weeks, the cultures were harvested and stained with the 23c6 monoclonal antibody, which identifies the osteoclast vitronectin receptor, and the 23c6-positive multinucleated cells counted. The 23c6 assay is more specific than the TRAP assay (used in Example 1 for mouse osteoclasts) for human osteoclasts.
Results are shown in FIG. 3, a plot of fold increase in osteoclasts over the number of osteoclasts formed in untreated marrow for each set of wells. Well conditions are indicated below the bars. Results are reported as the mean±S.E. for five replicate samples and were compared by Student's t test.

For assay [4], the system named is mouse bone marrow cells stimulated with MIP-1α. Put plainly: Formation of mouse osteoclasts (TRAP staining) in bone marrow cultures. It counts as cell-based. To be noted: 1 μg/ml propagermanium, two different concentrations of MIP-1α, with 10^−11 M vitamin D, FIG. 2.
Description: Bone marrow cells (10^6 cells/culture) from C57B1 mice were isolated and cultured for osteoclast-like multinucleated cell formation in the presence or absence of 1, 10, or 100 ng/ml MIP-1α, 10^−11 M 1,25-(OH)2D3 (vitamin D), and varying concentrations of anti-human MIP-1α antibody (20 or 100 ng/ml), anti-CCR1 receptor antibody (20 or 100 ng/ml), anti-CCR5 receptor antibody (20 or 100 ng/ml), and 1 μg/ml propagermanium. Twelve different culture compositions were each prepared in four wells of a 48-well plate. After approximately six or seven days, the cultures were stained for the enzyme tartrate-resistant acid phosphatase (TRAP), an enzyme secreted into the circulation by osteoclasts during bone resorption, using an acid phosphatase staining kit (Sigma). TRAP-positive multinucleated cells containing three or more nuclei (assumed to be osteoclasts) were counted with an inverted microscope. The readout can be either the total amount of TRAP (TRAP activity) or the number of osteoclasts.

“3-oxygermylpropionic acid polymer [Propagermanium]”: in assay [1], the “chemotactic response of monocytes to the CC chemokine MCP-1” value is “inhibit” and the “direct interaction with the chemokine receptor CCR2” value is recorded as “did not appear to interact directly”. In assay [2], the “recruitment of macrophages into the liver” value was “suppress”. The “number of osteoclasts formed in response to MIP-1α stimulation” value in assay [3] (200 pg/ml MIP-1α, varying concentrations of propagermanium) is on record as “dose-dependent reduction”. The “effect on osteoclast formation in response to vitamin D stimulation” value in assay [3] (10^−8 M 1,25-(OH)2D3, varying concentrations of propagermanium) is “no effect”. Also, the “inhibition of the effect of MIP-1α on osteoclast formation” value in assay [3] (highest dose of propagermanium, compared with 20 ng/ml anti-human MIP-1α antibody) is “comparable to that of the anti-human MIP-1α antibody”. In addition, the “reduction of the number of osteoclasts formed” value in assay [4] is reported as “greater than a factor of four”.
For the molecule `C=C1/C(=C\C=C2/CCC[C@]3(C)[C@@H]([C@H](C)CCCC(C)(C)O)CC[C@@H]23)C[C@@H](O)C[C@@H]1O` [vitamin D, 1,25-(OH)2D3], in assay [3], the “increase in the number of osteoclasts formed over untreated marrow” value was “greater than two-fold increase”.

B1: MIP-1α: CC chemokine macrophage inflammatory protein-1α, used as osteoclast stimulus (protein, UniProt P10147 24-92, looked up)
C-C motif chemokine 3: SLAADTPTACCFSYTSRQIPQNFIADYFETSSQCSKPGVIFLTKRSRQVCADPSEEWVQKYVSDLELSA
With B1, in assay [3], the “increase in the number of osteoclasts formed over untreated marrow” value is recorded as “greater than two-fold increase”.
